Laboratory results reported in PubChem BioAssay (NCI).
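Values below derive from 48-hour exposures of cells grown in 96-well plates, with endpoints linearly interpolated between the two concentrations bracketing the appropriate inhibition level. TGI denotes the concentration required for complete inhibition of growth.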

Key:
Assay in all cases: NCI tumour cell line growth inhibition, 48 h
KM20L2 colon = tested on: KM20L2 colon
XF 498 CNS = tested on: XF 498 CNS
SNB-78 CNS = tested on: SNB-78 CNS
DMS 273 small cell lung = tested on: DMS 273 small cell lung
RXF-631 renal = tested on: RXF-631 renal
SF-539 CNS = tested on: SF-539 CNS
MOLT-4 leukemia = tested on: MOLT-4 leukemia
DLD-1 colon = tested on: DLD-1 colon
LXFL 529 NSCLC = tested on: LXFL 529 NSCLC
DMS 114 small cell lung = tested on: DMS 114 small cell lung
M19-MEL melanoma = tested on: M19-MEL melanoma
HOP-18 NSCLC = tested on: HOP-18 NSCLC

Row | SMILES | TGI (KM20L2 colon) [µM] | TGI (XF 498 CNS) [µM] | TGI (SNB-78 CNS) [µM] | TGI (DMS 273 small cell lung) [µM] | TGI (RXF-631 renal) [µM] | TGI (SF-539 CNS) [µM] | TGI (MOLT-4 leukemia) [µM] | TGI (DLD-1 colon) [µM] | TGI (LXFL 529 NSCLC) [µM] | TGI (DMS 114 small cell lung) [µM] | TGI (M19-MEL melanoma) [µM] | TGI (HOP-18 NSCLC) [µM]
1 | CC1(Br)C(=O)NC(=O)N(C2CC(N=[N+]=[N-])C(CO)O2)C1N=[N+]=[N-] (configuration not stated) | > 100 | > 100 | > 100 | > 100 | > 100 | > 100 | > 100 | > 100 | > 100 | > 100 | > 100 | 
2 | CCOC(=O)C(=Cc1cc(OC)ccc1OC)C(=O)OCC | 17.5 | 23.6 |  | 14.2 | 32.5 | 15.1 | 37.9 | 21.8 | 12.2 | 11.8 | 17.9 | 23.6
